The test system of data set [1] is primary human T-ALL tumor cells. Nature of the data set: Akt phosphorylation in primary T-ALL samples (immunoblot). The data set is classed as cell-based. To be noted: 6 hours of treatment. The protocol: (§1) Cell lysates (from cell lines or thymocytes) were prepared on ice in M-PER Mammalian Protein Extraction reagent (Pierce) containing a cocktail of protease and phosphatase inhibitors (Swat et al., 2006). Equal amounts of total protein from lysates were subjected to SDS-PAGE, transferred to PVDF membrane (Immobilon-P, Millipore), and membranes probed by overnight incubation with appropriate primary antibodies. Bound antibodies were visualized with HRP-conjugated secondary antibodies and ECL chemistry (SuperPico West, Pierce).
A general note: In western blotting, separated proteins are transferred to a membrane and probed.

The test system of data set [2] is CCRF-CEM xenografts. Nature of the data set: Subcutaneous CCRF-CEM (CEM-luc) xenograft, bioluminescence. It is filed as in vivo, mouse. The note with it: 10 mg kg−1 every 8 hours for 4 days. The protocol:
For subcutaneous xenograft experiments, luminescent CCRF-CEM (CEM-luc) cells were generated by lentiviral infection with FUW-luc and selection with neomycin. Luciferase expression was verified with the Dual-Luciferase Reporter Assay kit (Promega Corp., Madison, WI). […] After 1 week, mice were treated by oral gavage with vehicle (0.5% methyl cellulose, 0.1% Tween-80), or CAL-130 (10 mg kg^−1) (Gilead Sciences, Foster City, CA) every 8 hours daily for 4 days and then tumors imaged as follows: mice anesthetized by isoflurane inhalation were injected intraperitoneally with D-luciferin (50 mg kg^−1, Xenogen, Calipers Life Sciences, Hopkinton, MA). Photonic emission was imaged with the In Vivo Imaging System (IVIS, Xenogen). Tumor bioluminescence was quantified by integrating the photonic flux (photons per second) through a region encircling each tumor using the LIVING IMAGES software package (Xenogen).
In the former, luciferase expressing CCRF-CEM cells were injected into the flanks of immunodeficient mice and allowed to grow for 1 week before administering vehicle control or inhibitor (10 mg kg^−1 every 8 hours) for a total of 4 days. In the latter, treatment commenced 3 days post-injection of tumor cells for a total of 7 days. […]

For data set [3], the system named is CCRF-CEM xenograft. In words: Systemic (intravenous) CCRF-CEM xenograft, survival. The note with it: treatment from 3 days post-injection for 7 days. It is filed as in vivo, mouse. The method, then:
After 3 days, mice were segregated into two treatment groups that received either CAL-130 or vehicle by oral gavage as described above for 7 days. Mice in both groups were then followed until moribund (and euthanized).
In the former, luciferase expressing CCRF-CEM cells were injected into the flanks of immunodeficient mice and allowed to grow for 1 week before administering vehicle control or inhibitor (10 mg kg^−1 every 8 hours) for a total of 4 days. In the latter, treatment commenced 3 days post-injection of tumor cells for a total of 7 days. […] This translated into an increase in median survival time for treated animals with systemic disease of 35 days versus 23 days for mice that received vehicle control alone (FIG. 19D).

The test system of data set [4] is PI3Kα. In words: PI3Kα isoform selective cell-based assay (PDGF-stimulated SW3T3 cells, P-Akt). To be noted: compared to pan-PI3K/mTOR inhibitor BEZ235. The protocol: For the analysis of p110α-mediated signaling, SW3T3 cells were placed in serum free media (3 hours) and incubated with either CAL-130 or the Pan-PI3K/mTor inhibitor BEZ235 (Selleck Chemicals) for 1 hour prior to stimulation with PDGF (10 ng/ml; Cell Signaling) for 10 minutes at 37° C. After washing once in cold phosphate-buffered saline (PBS), the cell pellet was resuspended in lysis buffer (50 mM HEPES [N-2-hydroxyethylpiperazine-N-2-ethanesulfonic acid], pH 7.4, 150 mM NaCl, 10% glycerol, 1% Triton X-100, 1.5 mM MgCl2, 1 mM EGTA [ethylene glycol tetraacetic acid], 100 mM NaF, 1 mM phenylmethylsulfonyl fluoride, 1 mM NaVO4, 1 μg/ml leupeptin, and 1 μg/ml aprotinin) for 15 minutes on ice. Whole-cell lysates were obtained by centrifugation, and the soluble protein analyzed by Western blotting for Akt and P-Akt levels. Quantification was done using the Li-COR Odyssey imaging system.

The test system of data set [5] is CCRF-CEM cells. Nature of the data set: Immunoblots of signaling downstream of PI3K. It is filed as cell-based, human. The method, then:
as §1
The PI3K/Akt signaling pathway can play a major role in cell cycle progression and growth of tumors by regulating the activation state of the downstream targets such as glycogen synthase kinase-3β (GSK3β) and mTOR (Schmelzle and Hall, 2000; Cohen and Frame, 2001). PI3K/Akt mediated phosphorylation suppresses the function of the former and promotes the activity of the latter. Tumor cell survival, on the other hand, is largely mediated by the ability of this pathway to inactivate proapoptotic effectors such as the BH3-only pro-apoptotic protein BAD and to repress the expression of BIM, both of which participate in the mitochondria-dependent cell death pathway (Strasser et al., 2000; Duronio, 2008). Therefore, the ability of CAL-130 treatment to interfere with such events was examined. […] Downstream targets of this protein kinase were also affected as evidenced by the reduction in phosphorylation of GSK3β and mTOR. […] The latter would also explain in part the synergy between CAL-130 and dexamethasone, as BIM expression is required for glucocorticoid-induced apoptosis (Erlacher et al., 2005; Wang et al., 2003).

Data set [6] has as its target p110γ (Homo sapiens, UniProt P48736). Nature of the data set: ex-vivo PI3 kinase assay using recombinant PI3K. It is filed as biochemical. The note with it: ATP at Km. The method, then: (§2) CAL-130 is a derivative of IC87114 (Gilead Sciences, Foster City, CA), the synthesis of which has been previously described (Sadhu et al., 2003 and Sadhu et al., U.S. Pat. Nos. 6,518,277 and 6,667,300, which are incorporated by reference as if recited in full herein). […] values for CAL-130 inhibition of PI3K isoforms were determined in ex-vivo PI3 kinase assays using recombinant PI3K. A 10-point kinase inhibitory profile was determined with ATP at a concentration consistent with the Km for each enzyme (Puri et al., 2004).

The target of data set [7] is p110δ (Homo sapiens, UniProt O00329). Nature of the data set: ex-vivo PI3 kinase assay using recombinant PI3K. The data set is classed as biochemical. To be noted: ATP at Km. The protocol:
as §2

In data set [8] the target is p110β (Homo sapiens, UniProt P42338). Nature of the data set: ex-vivo PI3 kinase assay using recombinant PI3K. The note with it: ATP at Km. The data set is classed as biochemical. The method, then: as §2
Chain of p110β (P42338 whole entry, species assumed): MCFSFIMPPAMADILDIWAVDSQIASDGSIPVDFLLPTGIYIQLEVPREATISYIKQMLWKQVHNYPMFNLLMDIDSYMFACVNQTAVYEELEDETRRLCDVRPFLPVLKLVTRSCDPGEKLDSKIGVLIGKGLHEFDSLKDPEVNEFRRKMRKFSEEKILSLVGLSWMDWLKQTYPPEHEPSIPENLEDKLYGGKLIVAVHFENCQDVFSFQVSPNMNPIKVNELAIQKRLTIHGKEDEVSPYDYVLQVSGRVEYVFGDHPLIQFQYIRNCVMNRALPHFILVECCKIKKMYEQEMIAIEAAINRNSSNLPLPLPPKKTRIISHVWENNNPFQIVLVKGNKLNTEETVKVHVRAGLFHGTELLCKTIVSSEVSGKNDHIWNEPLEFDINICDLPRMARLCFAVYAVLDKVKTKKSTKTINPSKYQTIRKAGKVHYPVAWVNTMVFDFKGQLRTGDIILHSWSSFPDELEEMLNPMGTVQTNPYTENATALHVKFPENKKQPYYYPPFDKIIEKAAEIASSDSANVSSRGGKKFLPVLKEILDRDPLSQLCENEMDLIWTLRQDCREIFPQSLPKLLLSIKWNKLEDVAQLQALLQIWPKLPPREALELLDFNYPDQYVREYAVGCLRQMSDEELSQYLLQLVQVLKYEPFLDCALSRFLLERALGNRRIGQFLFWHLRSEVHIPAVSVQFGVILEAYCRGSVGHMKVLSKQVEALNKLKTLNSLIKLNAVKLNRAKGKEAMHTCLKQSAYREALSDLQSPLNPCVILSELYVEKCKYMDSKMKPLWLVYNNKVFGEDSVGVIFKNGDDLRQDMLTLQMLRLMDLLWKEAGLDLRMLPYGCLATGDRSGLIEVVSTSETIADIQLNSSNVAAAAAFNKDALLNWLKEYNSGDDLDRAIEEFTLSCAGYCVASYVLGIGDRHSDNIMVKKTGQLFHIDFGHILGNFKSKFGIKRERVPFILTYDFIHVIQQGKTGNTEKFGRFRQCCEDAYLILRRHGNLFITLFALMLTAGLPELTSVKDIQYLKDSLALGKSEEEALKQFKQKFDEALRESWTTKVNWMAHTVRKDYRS
Chain of p110β (P27986 whole entry partner, species assumed): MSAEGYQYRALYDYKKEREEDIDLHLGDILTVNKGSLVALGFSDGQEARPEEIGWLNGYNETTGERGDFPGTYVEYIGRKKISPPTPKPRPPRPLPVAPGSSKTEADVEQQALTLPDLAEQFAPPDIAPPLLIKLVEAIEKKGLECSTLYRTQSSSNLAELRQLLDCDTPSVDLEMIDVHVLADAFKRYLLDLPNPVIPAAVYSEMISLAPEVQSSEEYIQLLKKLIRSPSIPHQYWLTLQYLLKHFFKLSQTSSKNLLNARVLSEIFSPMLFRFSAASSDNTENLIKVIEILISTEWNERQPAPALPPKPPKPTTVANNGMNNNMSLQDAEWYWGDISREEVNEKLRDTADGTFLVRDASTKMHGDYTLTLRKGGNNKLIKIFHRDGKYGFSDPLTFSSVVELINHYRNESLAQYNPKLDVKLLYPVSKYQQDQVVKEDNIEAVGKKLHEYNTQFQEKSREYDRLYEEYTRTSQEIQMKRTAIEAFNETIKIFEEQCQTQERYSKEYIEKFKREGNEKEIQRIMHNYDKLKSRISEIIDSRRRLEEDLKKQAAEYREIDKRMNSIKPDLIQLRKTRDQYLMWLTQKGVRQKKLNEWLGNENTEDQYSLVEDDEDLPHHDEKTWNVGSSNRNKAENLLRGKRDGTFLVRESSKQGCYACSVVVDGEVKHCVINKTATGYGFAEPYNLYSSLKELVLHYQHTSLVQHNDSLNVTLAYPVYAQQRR
The target of data set [9] is p110α (Homo sapiens, UniProt P42336). Nature of the data set: ex-vivo PI3 kinase assay using recombinant PI3K. It is filed as biochemical. To be noted: ATP at Km. The protocol:
as §2

A short description of data set [10]: Plasma levels of CAL-130. The data set is classed as in vivo, mouse. To be noted: 10 mg kg−1 orally, at the end of 8 hours. The method, then:
For CAL-130 level determinations, animals received a single oral dose (10 mg kg^−1 or 20 mg kg^−1) of inhibitor. Plasma was collected at 0, 2, 4, 8, and 12 hours and subjected to high-performance liquid chromatography-MS/MS (sensitivity 1 ng/mL). The concentration of CAL-130 in plasma was determined using a standard curve (analyte peak area versus concentration) generated with calibration standard pools. Values represent the mean (±SD) for four animals per group.

For orientation: IC50 means the concentration needed to halve the response being measured.

Chain of p110α (P42336 whole entry, species assumed): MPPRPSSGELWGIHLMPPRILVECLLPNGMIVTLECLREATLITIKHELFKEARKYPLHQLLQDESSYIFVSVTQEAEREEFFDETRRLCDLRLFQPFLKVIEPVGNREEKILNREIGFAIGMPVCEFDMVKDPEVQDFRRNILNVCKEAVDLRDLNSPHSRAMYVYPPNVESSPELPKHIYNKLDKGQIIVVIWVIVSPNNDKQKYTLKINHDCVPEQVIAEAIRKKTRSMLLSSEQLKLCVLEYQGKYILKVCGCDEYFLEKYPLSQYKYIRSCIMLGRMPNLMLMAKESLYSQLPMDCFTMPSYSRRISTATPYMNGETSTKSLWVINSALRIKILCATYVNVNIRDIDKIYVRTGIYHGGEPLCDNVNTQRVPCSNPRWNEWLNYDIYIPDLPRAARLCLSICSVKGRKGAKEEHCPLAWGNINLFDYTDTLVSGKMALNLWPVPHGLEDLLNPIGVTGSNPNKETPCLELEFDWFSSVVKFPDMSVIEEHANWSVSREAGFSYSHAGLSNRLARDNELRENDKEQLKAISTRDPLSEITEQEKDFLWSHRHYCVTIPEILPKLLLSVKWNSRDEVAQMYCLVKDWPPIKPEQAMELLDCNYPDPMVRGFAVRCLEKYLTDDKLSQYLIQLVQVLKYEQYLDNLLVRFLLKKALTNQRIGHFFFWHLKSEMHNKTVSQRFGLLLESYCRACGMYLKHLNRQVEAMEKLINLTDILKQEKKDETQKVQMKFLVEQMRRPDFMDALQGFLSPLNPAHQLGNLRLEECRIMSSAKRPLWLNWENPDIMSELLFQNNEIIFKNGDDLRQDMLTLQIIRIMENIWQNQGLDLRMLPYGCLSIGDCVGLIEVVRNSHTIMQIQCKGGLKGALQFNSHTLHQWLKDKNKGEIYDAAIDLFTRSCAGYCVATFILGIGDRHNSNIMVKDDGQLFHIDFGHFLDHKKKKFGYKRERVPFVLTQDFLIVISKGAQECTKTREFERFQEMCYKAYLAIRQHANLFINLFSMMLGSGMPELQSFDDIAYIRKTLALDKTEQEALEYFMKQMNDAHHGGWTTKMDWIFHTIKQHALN
Chain of p110α (P27986 whole entry partner, species assumed): as the sequence (P27986 whole entry partner, species assumed) above
Chain of p110δ (O00329 whole entry, species assumed): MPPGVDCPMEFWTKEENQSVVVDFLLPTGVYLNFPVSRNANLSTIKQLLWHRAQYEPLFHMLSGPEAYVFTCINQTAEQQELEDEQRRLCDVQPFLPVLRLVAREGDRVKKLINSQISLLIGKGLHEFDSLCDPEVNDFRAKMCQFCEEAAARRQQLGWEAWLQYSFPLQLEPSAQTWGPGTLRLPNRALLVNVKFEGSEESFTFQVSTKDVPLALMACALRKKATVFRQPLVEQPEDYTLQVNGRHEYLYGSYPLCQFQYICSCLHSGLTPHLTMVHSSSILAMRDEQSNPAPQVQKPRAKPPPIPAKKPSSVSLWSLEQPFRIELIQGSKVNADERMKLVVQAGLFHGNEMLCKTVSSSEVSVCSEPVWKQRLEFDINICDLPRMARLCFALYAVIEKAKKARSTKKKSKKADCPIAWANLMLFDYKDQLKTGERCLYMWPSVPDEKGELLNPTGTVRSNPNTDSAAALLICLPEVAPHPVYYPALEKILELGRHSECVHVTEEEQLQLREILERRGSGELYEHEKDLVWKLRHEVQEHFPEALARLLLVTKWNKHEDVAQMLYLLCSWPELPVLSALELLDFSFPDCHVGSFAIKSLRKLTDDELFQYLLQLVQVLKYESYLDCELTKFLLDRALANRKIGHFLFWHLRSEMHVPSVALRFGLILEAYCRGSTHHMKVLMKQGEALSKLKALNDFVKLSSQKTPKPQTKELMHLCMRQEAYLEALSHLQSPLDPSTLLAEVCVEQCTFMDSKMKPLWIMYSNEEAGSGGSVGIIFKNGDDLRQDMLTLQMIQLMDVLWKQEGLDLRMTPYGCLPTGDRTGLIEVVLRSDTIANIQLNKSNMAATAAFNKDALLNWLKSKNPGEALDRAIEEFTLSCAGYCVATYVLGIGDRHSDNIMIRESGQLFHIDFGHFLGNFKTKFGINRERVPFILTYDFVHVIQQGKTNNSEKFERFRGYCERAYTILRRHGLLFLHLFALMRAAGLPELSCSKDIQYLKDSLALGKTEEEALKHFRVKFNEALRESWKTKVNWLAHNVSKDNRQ
Chain of p110δ (P27986 whole entry partner, species assumed): as the sequence (P27986 whole entry partner, species assumed) above
Chain of p110γ (P48736 whole entry, species assumed, canonical isoform): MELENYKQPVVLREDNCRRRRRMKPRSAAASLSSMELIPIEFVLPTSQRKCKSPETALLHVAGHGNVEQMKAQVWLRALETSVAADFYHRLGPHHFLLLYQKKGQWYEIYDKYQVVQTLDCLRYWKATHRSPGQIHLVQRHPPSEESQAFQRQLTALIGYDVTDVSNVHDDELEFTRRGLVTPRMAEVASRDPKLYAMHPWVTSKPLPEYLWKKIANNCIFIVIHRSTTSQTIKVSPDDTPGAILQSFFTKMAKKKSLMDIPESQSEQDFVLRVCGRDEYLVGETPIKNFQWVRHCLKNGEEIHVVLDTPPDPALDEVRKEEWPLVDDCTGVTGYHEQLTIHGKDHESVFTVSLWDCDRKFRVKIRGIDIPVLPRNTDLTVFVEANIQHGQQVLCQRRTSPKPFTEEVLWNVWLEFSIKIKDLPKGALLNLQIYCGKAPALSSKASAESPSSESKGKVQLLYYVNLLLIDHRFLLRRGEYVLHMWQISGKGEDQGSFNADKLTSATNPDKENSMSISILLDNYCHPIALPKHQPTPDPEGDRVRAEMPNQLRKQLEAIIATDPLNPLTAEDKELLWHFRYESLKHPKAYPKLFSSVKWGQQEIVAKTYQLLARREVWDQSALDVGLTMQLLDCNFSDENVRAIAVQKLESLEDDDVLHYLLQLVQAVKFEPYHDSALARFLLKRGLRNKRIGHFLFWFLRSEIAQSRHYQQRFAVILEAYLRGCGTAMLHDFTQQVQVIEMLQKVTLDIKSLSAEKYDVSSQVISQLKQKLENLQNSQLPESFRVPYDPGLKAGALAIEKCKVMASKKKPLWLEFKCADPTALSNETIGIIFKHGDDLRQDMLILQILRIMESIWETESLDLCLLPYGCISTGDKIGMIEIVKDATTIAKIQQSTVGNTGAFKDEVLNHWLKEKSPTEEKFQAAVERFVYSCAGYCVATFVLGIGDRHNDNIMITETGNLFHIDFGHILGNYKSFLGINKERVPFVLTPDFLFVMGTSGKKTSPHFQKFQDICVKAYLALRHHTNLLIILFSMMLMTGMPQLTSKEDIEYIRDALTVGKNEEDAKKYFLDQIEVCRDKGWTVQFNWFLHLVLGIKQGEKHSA

For the compound `Cc1ccccc1-n1c(C(C)Nc2nc(N)nc3nc[nH]c23)nc2cccc(C)c2c1=O` (centres unmarked) [CAL-130], the Akt phosphorylation result in [1] is “reduction”. In addition, in data set [2], the “difference in luminescence, treated versus vehicle control” value worked out at 5 fold. Further, in data set [3], the median survival time was determined as 35 days. Besides, the “PDGF-induced activation of PI3Kα (Akt phosphorylation)” value in data set [4] was “limited ability to impair”. In [5], the “expression of BIM (including L and S isoforms)” value was “enhanced expression”; the “phosphorylation of BAD” value is recorded as “reduction”; the “phosphorylation of GSK3β” value is reported as “reduction”; the “phosphorylation of mTOR” value is on record as “reduction”. Besides, in data set [5] (2.5 μM, 6 hours), the “Akt (Ser473) phosphorylation” value is given as “complete abrogation”. For the same compound, the IC50 in data set [6] was 6.1 nM. In addition, in data set [7], the half-inhibitory concentration (IC50) came out at 1.3 nM. In addition, the IC50 in [8] came to 56 nM. Also, the IC50 in data set [9] was 115 nM. This compound also returned a plasma concentration in data set [10] of 330 ± 180 nM.

(Values after patent US11969428B2, “Methods and pharmaceutical compositions for treating lymphoid malignancy” (priority 2011, dated 2024).)
